pIC50: −log10 of the molar value. Like-named read-outs stand apart in the source and are kept apart here. Non-standard residues stand in square brackets, D forms with d. Residues, ends and D or L forms follow the SMILES beside them. *: point of attachment. Stearoyl = CCCCCCCCCCCCCCCCCC(=O)*; Palmitoyl = CCCCCCCCCCCCCCCC(=O)*; Myristoyl = CCCCCCCCCCCCCC(=O)*; Lauroyl = CCCCCCCCCCCC(=O)*; Decanoyl = CCCCCCCCCC(=O)*; Octanoyl = CCCCCCCC(=O)*

Series [1] concerns Duck Hepatitis B Virus (DHBV). As to the method: (§1) Infected PDH and LMH-D2 cells were treated with 2 µM of several modified cationic peptides for 5 days. Cells supernatants were collected daily and were spotted onto positively charged nylon membrane and DHBV DNA was detected by hybridization with a DHBV DNA probe labeled with ^32P, and then was quantified by PhosphorImager scanning using ImageQuant software (Molecular Dynamics) to monitor DHBV release. Relative areas under curves determined by the means of duplicate, compared to untreated cells set at 100% are represented. […] Cell viability was determined by enzymatic activity MTT assay after daily incubation with different concentrations of Deca-(Arg)8 ranking from 1 µM to 4 µM during six days. The error bars display the standard deviation of duplicates in three independent experiments.
(§2) DHBV-infected PDHs (A), and stable transfected LMH-D2 cells (B) were treated with increasing amounts of Deca-(Arg)8 ranking from 0.25 µM to 2 µM in duplicates for 6 and 4 days, respectively. Cell culture supernatants were collected daily during treatment. The kinetics of viral release in cell culture supernatants, monitored by dot-blot hybridization and quantified by PhosphorImager scanning using ImageQuant software (Molecular Dynamics) is represented on the upper panel. Relative areas under curves determined by the means of duplicate, compared to untreated cells, are represented in the lower panel. The curves are representative of at least two independent experiments.
(§3) Primary duck hepatocytes (PDH) were isolated from Pekin duck embryos as previously described. DHBV infection was performed at the same time as plating by overnight incubation (16 h) of the hepatocytes with a virus-positive duck serum (30 virus genome equivalents (vge) per cell). The previously described avian hepatoma DHBV transfected LMH-D2 cell line, [38] was grown as previously described. The stably HBV-transfected cell line HepG2.2.15 was grown as previously described. Different amounts of CatLip were added daily to the culture medium from day 1 post-seeding and cells were lyzed at the end of treatment for analysis of intracellular viral DNA, RNA, and proteins. The growth medium was harvested and changed daily. The cellular toxicity was analyzed by daily examination of cells with a light microscope and by a cell toxicity test based on the (3-(4,5-dimethylthiazol-2-yl)-2,5 diphenyl-tetrazolium-bromide (MTT) assay.
(§4) Cells supernatants were harvested daily, spotted onto positively charged nylon membrane and extracellular DHBV DNA was detected in supernatant of cells by dot blot hybridization assay using a full-length ^32P-labelled DHBV probe as described previously. For DHBV intermediate replicative forms analysis, DNA was extracted from cells and 10 µg of the total cellular DNA were subjected to electrophoresis on 1% agarose gel, followed by Southern blot analysis and hybridization with ^32P-labeled genomic DHBV probe as previously described. Viral DNA was quantified by PhosphorImager scanning using ImageQuant software (Molecular Dynamics).

Series [2] deals with Duck Hepatitis B Virus (DHBV). In words: Inhibition of DHBV release in stably DHBV-transfected LMH-D2 cells (dot-blot of supernatant DHBV DNA). It is filed as cell-based. To be noted: concentration of CPP resulting in 50% inhibition of DHBV release, peptide added daily, PhosphorImager. As to the method:
as §1, §2, §3, §4

The subject of the next series is PDH. The conditions noted are these: 24 hours at 37°C, 5% CO2, fluorescence microscopy; for FITC-labelled cells (internalization): 0.5 µM; for percentage of FITC-labelled cells: 2 µM.

Method for PDH: Next we analyzed cellular internalization of Deca-(Arg)8-FITC and Arg8-FITC in PDH cells using fluorescence microscopy.
(A); PDHs were plated and treated with (Arg)8 (left panel) or Deca-(Arg)8 (right panel) coupled to FITC at different concentration ranking from 0.5 µM to 2 µM and cells were incubated at 37°c, 5% of CO2 for 24 hours. Cells were observed by fluorescence microscopy (Magnificationx20).

For `CCCCCCCCCCCCCCCCCC(=O)N[C@H](Cc1c[nH]c2ccccc12)C(=O)N[C@H](CCCNC(=N)N)C(=O)N[C@H](CCCNC(=N)N)C(=O)N[C@H](CCCNC(=N)N)C(=O)N[C@H](CCCNC(=N)N)C(=O)N[C@H](CCCNC(=N)N)C(=O)N[C@H](CCCNC(=N)N)C(=O)N[C@H](CCCNC(=N)N)C(=O)N[C@H](CCCNC(=N)N)C(=O)NCC(N)=O` [Stear-(Arg)8] (Stearoyl-[dW][dR][dR][dR][dR][dR][dR][dR][dR]G-NH2), the pIC50 in series [1] (16 h) was 5.72; in series [2], 5.74.
On to `CCCCCCCCCC(=O)O` [decanoic acid, reference compound], for which the “effect on DHBV secretion” value in series [1] (5-days treatment, decanoic acid 0.5 to 10 µM, Fig. S2 (PDH and LMH-D2)) is “unable to significantly decrease DHBV secretion”.
`N=C(N)NCCC[C@@H](NC(=O)[C@H](N)Cc1c[nH]c2ccccc12)C(=O)N[C@H](CCCNC(=N)N)C(=O)N[C@H](CCCNC(=N)N)C(=O)N[C@H](CCCNC(=N)N)C(=O)N[C@H](CCCNC(=N)N)C(=O)N[C@H](CCCNC(=N)N)C(=O)N[C@H](CCCNC(=N)N)C(=O)N[C@H](CCCNC(=N)N)C(=O)NCC(N)=O` [(Arg)8] (H-[dW][dR][dR][dR][dR][dR][dR][dR][dR]G-NH2): the “inhibition of DHBV secretion” value in series [1] (5-days treatment, (Arg)8 0.5 to 2 µM, compared with Deca-(Arg)8, Fig. S2 (PDH and LMH-D2; cell system not given)) came out at 60%. The negative logarithm of the IC50 (pIC50) is 5.74 in series [1] (16 h) and 5.89 in series [2].
Consider `CCCCCCCCCC(=O)N[C@H](Cc1c[nH]c2ccccc12)C(=O)N[C@H](CCCNC(=N)N)C(=O)N[C@H](CCCNC(=N)N)C(=O)N[C@H](CCCNC(=N)N)C(=O)N[C@H](CCCNC(=N)N)C(=O)N[C@H](CCCNC(=N)N)C(=O)N[C@H](CCCNC(=N)N)C(=O)N[C@H](CCCNC(=N)N)C(=O)N[C@H](CCCNC(=N)N)C(=O)N[C@H](CCCNC(=N)N)C(=O)N[C@H](CCCNC(=N)N)C(=O)NCC(N)=O` [Deca-(Arg)10], for which the pIC50 in series [1] (16 h) is 5.85.
Regarding `CCCCCCCCCCCC(=O)N[C@H](Cc1c[nH]c2ccccc12)C(=O)N[C@H](CCCNC(=N)N)C(=O)N[C@H](CCCNC(=N)N)C(=O)N[C@H](CCCNC(=N)N)C(=O)N[C@H](CCCNC(=N)N)C(=O)N[C@H](CCCNC(=N)N)C(=O)N[C@H](CCCNC(=N)N)C(=O)N[C@H](CCCNC(=N)N)C(=O)N[C@H](CCCNC(=N)N)C(=O)NCC(N)=O` [Dodeca-(Arg)8] (Lauroyl-[dW][dR][dR][dR][dR][dR][dR][dR][dR]G-NH2), the pIC50 is 6.05 in series [1] (16 h) and 6.15 in series [2].
For the compound `CCCCCCCCCC(=O)N[C@H](Cc1c[nH]c2ccccc12)C(=O)N[C@H](CCCNC(=N)N)C(=O)N[C@H](CCCNC(=N)N)C(=O)N[C@H](CCCNC(=N)N)C(=O)N[C@H](CCCNC(=N)N)C(=O)N[C@H](CCCNC(=N)N)C(=O)N[C@H](CCCNC(=N)N)C(=O)NCC(N)=O` [Deca-(Arg)6], the pIC50 was 5.85 in series [1] (read-out: IC50 of DHBV release, PDH, DHBV-infected PDH, concentration of CPP resulting in 50% inhibition of DHBV release, peptide added daily, supernatant DHBV DNA by dot-blot, 32P probe, PhosphorImager) and 5.66 in series [2].
For `CCCCCCCCCC(=O)N[C@H](Cc1c[nH]c2ccccc12)C(=O)N[C@H](CCCNC(=N)N)C(=O)N[C@H](CCCNC(=N)N)C(=O)N[C@H](CCCNC(=N)N)C(=O)N[C@H](CCCNC(=N)N)C(=O)N[C@H](CCCNC(=N)N)C(=O)N[C@H](CCCNC(=N)N)C(=O)N[C@H](CCCNC(=N)N)C(=O)NCC(N)=O` [Deca-(Arg)7], the pIC50 in series [1] (16 h) was 6.05; in series [2] it was 6.10.
In the case of `CCCCCCCCCCCCCC(=O)N[C@H](Cc1c[nH]c2ccccc12)C(=O)N[C@H](CCCNC(=N)N)C(=O)N[C@H](CCCNC(=N)N)C(=O)N[C@H](CCCNC(=N)N)C(=O)N[C@H](CCCNC(=N)N)C(=O)N[C@H](CCCNC(=N)N)C(=O)N[C@H](CCCNC(=N)N)C(=O)N[C@H](CCCNC(=N)N)C(=O)N[C@H](CCCNC(=N)N)C(=O)NCC(N)=O` [Myrist-(Arg)8] (Myristoyl-[dW][dR][dR][dR][dR][dR][dR][dR][dR]G-NH2), the pIC50 in series [1] (16 h) and in series [2] was 5.92 throughout.
`CCCCCCCCCC(=O)N[C@H](Cc1c[nH]c2ccccc12)C(=O)N[C@H](CCCNC(=N)N)C(=O)N[C@H](CCCNC(=N)N)C(=O)N[C@H](CCCNC(=N)N)C(=O)N[C@H](CCCNC(=N)N)C(=O)N[C@H](CCCNC(=N)N)C(=O)N[C@H](CCCNC(=N)N)C(=O)N[C@H](CCCNC(=N)N)C(=O)N[C@H](CCCNC(=N)N)C(=O)N[C@H](CCCNC(=N)N)C(=O)NCC(N)=O` [Deca-(Arg)9] (Decanoyl-[dW][dR][dR][dR][dR][dR][dR][dR][dR][dR]G-NH2) gave a pIC50 in series [1] (16 h) of 5.80.
As to “Fluoresceinyl-lysine-RRRRRRRRG-NH2 [(Arg)8-FITC]”, in the series with PDH, the “FITC-labelled cells (internalization)” value was “remained negative” and the “percentage of FITC-labelled cells” value came out at 70%.
In the case of `CCCCCCCCCCCCCCCC(=O)N[C@H](Cc1c[nH]c2ccccc12)C(=O)N[C@H](CCCNC(=N)N)C(=O)N[C@H](CCCNC(=N)N)C(=O)N[C@H](CCCNC(=N)N)C(=O)N[C@H](CCCNC(=N)N)C(=O)N[C@H](CCCNC(=N)N)C(=O)N[C@H](CCCNC(=N)N)C(=O)N[C@H](CCCNC(=N)N)C(=O)N[C@H](CCCNC(=N)N)C(=O)NCC(N)=O` [Palmit-(Arg)8] (Palmitoyl-[dW][dR][dR][dR][dR][dR][dR][dR][dR]G-NH2), the pIC50 was 5.74 in series [1] (16 h) and 5.77 in series [2].
In series [1] (16 h), `CCCCCCCCCC(=O)N[C@H](CCCNC(=N)N)C(=O)N[C@H](CCCNC(=N)N)C(=O)N[C@H](CCCNC(=N)N)C(=O)N[C@H](CCCNC(=N)N)C(=O)N[C@H](CCCCN)C(=O)N[C@H](CCCCN)C(=O)N[C@H](CCCCN)C(=O)N[C@H](CCCCN)C(=O)NCC(N)=O` [Deca-(Arg-Lys)4–4] (Decanoyl-[dR][dR][dR][dR][dK][dK][dK][dK]G-NH2) showed a negative-log IC50 (pIC50) of 5.64.
Regarding “Decanoic acid (C10:0)-Fluoresceinyl-lysine–RRRRRRRRG-NH2 [Deca-(Arg)8-FITC]”, in the series on PDH, the “FITC-labelled cells (internalization)” value is “a higher number of FITC-labelled cells were observable” and the “percentage of FITC-labelled cells” value is listed as “more than 90%”.
On to `CCCCCCCC(=O)N[C@H](Cc1c[nH]c2ccccc12)C(=O)N[C@H](CCCNC(=N)N)C(=O)N[C@H](CCCNC(=N)N)C(=O)N[C@H](CCCNC(=N)N)C(=O)N[C@H](CCCNC(=N)N)C(=O)N[C@H](CCCNC(=N)N)C(=O)N[C@H](CCCNC(=N)N)C(=O)N[C@H](CCCNC(=N)N)C(=O)N[C@H](CCCNC(=N)N)C(=O)NCC(N)=O` [Octa-(Arg)8] (Octanoyl-[dW][dR][dR][dR][dR][dR][dR][dR][dR]G-NH2), for which the pIC50 in series [1] (16 h) is 5.77; in series [2], 5.57.

The values above are taken from paper PMC3500254, “Potent Inhibition of Late Stages of Hepadnavirus Replication by a Modified Cell Penetrating Peptide” (PLoS ONE, 2012).
